Test results: the supplement of paper PMC10307832

Key:
Test in all cases: relative viability (nuclei count vs DMSO), 5 days (fraction); higher = more cells survive
NCI-H2228 = system: NCI-H2228
In short: (§1)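 Relative viability was taken as the ratio of nuclei in treated wells to nuclei in vehicle wells. Lung cancer cell lines in 1536-well plates received compounds by pin tool one day after seeding, either one drug alone or a fixed anchor-drug dose plus five library-drug doses (not always all listed) in √10 steps. Nuclei were counted on 4× images after 5 days of treatment, and values are medians of duplicate plates.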

NCI-H1793 = system: NCI-H1793
In short: as §1

NCI-H1666 = system: NCI-H1666
In short: as §1

LU99A = system: LU99A
In short: as §1

LOU-NH91 = system: LOU-NH91
In short: as §1

NCI-H1355 = system: NCI-H1355
In short: as §1

NCI-H460 = system: NCI-H460
In short: as §1

NCI-H23 = system: NCI-H23
In short: as §1

BEN = system: BEN
In short: as §1

SW 1573 = system: SW 1573
In short: as §1

LC-2-ad = system: LC-2-ad
In short: as §1

A-427 = system: A-427
In short: as §1

NCI-H650 = system: NCI-H650
In short: as §1

PC-3 [JPC-3] = system: PC-3 [JPC-3]
In short: as §1

LCLC-97TM1 = system: LCLC-97TM1
In short: as §1

NCI-H1993 = system: NCI-H1993
In short: as §1

NCI-H838 = system: NCI-H838
In short: as §1

NCI-H1915 = system: NCI-H1915
In short: as §1

NCI-H520 = system: NCI-H520
In short: as §1

RERF-LC-KJ = system: RERF-LC-KJ
In short: as §1

EKVX = system: EKVX
In short: as §1

NCI-H2347 = system: NCI-H2347
In short: as §1

Compound: O=C(O)CCCCC(CCSCc1ccccc1)SCc1ccccc1 (centres undefined) [CPI-613] + C[C@]1(O)C[C@@H](c2nc(-c3ccc4ccc(-c5ccccc5)nc4c3)c3c(N)nccn32)C1 [Linsitinib] (partner 1 µM)
- relative viability (NCI-H2228; first compound 5 µM): 0.735
- relative viability (NCI-H2228; first compound 15.81 µM): 0.453
- relative viability (NCI-H2228; first compound 50 µM): 0.402
- relative viability (NCI-H2228; first compound 158.11 µM): 0.221
- relative viability (NCI-H2228; first compound 500 µM): 0.0094
- relative viability (NCI-H1793; first compound 5 µM): 0.822
- relative viability (NCI-H1793; first compound 50 µM): 0.823
- relative viability (NCI-H1793; first compound 158.11 µM): 0.774
- relative viability (NCI-H1793; first compound 500 µM): 0.102
- relative viability (NCI-H1666; first compound 5 µM): 0.783
- relative viability (NCI-H1666; first compound 15.81 µM): 0.907
- relative viability (NCI-H1666; first compound 50 µM): 0.789
- relative viability (NCI-H1666; first compound 158.11 µM): 0.172
- relative viability (NCI-H1666; first compound 500 µM): 0.167
- relative viability (LU99A; first compound 5 µM): 0.519
- relative viability (LU99A; first compound 15.81 µM): 0.461
- relative viability (LU99A; first compound 50 µM): 0.561
- relative viability (LU99A; first compound 158.11 µM): 0.273
- relative viability (LU99A; first compound 500 µM): 0.0476
- relative viability (LOU-NH91; first compound 5 µM): 0.918
- relative viability (LOU-NH91; first compound 15.81 µM): 0.907
- relative viability (LOU-NH91; first compound 50 µM): 1.06
- relative viability (LOU-NH91; first compound 158.11 µM): 0.971
- relative viability (LOU-NH91; first compound 500 µM): 0.959
- relative viability (NCI-H1355; first compound 5 µM): 0.78
- relative viability (NCI-H1355; first compound 15.81 µM): 0.825
- relative viability (NCI-H1355; first compound 50 µM): 0.856
- relative viability (NCI-H1355; first compound 158.11 µM): 0.477
- relative viability (NCI-H1355; first compound 500 µM): 0.103
- relative viability (NCI-H460; first compound 5 µM): 0.751
- relative viability (NCI-H460; first compound 15.81 µM): 0.737
- relative viability (NCI-H460; first compound 50 µM): 0.78
- relative viability (NCI-H460; first compound 158.11 µM): 0.125
- relative viability (NCI-H460; first compound 500 µM): 0.0075
- relative viability (NCI-H23; first compound 5 µM): 0.596
- relative viability (NCI-H23; first compound 15.81 µM): 0.567
- relative viability (NCI-H23; first compound 50 µM): 0.395
- relative viability (NCI-H23; first compound 158.11 µM): 0.383
- relative viability (NCI-H23; first compound 500 µM): 0.0224
- relative viability (BEN; first compound 5 µM): 0.881
- relative viability (BEN; first compound 15.81 µM): 0.784
- relative viability (BEN; first compound 50 µM): 0.941
- relative viability (BEN; first compound 158.11 µM): 0.747
- relative viability (BEN; first compound 500 µM): 0.72
- relative viability (SW 1573; first compound 5 µM): 0.878
- relative viability (SW 1573; first compound 15.81 µM): 0.751
- relative viability (SW 1573; first compound 50 µM): 0.816
- relative viability (SW 1573; first compound 158.11 µM): 0.625
- relative viability (SW 1573; first compound 500 µM): 0.576
- relative viability (LC-2-ad; first compound 5 µM): 0.805
- relative viability (LC-2-ad; first compound 15.81 µM): 0.847
- relative viability (LC-2-ad; first compound 50 µM): 0.738
- relative viability (LC-2-ad; first compound 158.11 µM): 0.251
- relative viability (LC-2-ad; first compound 500 µM): 0.0081
- relative viability (A-427; first compound 5 µM): 1.1
- relative viability (A-427; first compound 15.81 µM): 1.12
- relative viability (A-427; first compound 50 µM): 1.02
- relative viability (A-427; first compound 158.11 µM): 0.847
- relative viability (A-427; first compound 500 µM): 0.618
- relative viability (NCI-H650; first compound 5 µM): 0.905
- relative viability (NCI-H650; first compound 15.81 µM): 0.807
- relative viability (NCI-H650; first compound 50 µM): 0.975
- relative viability (NCI-H650; first compound 158.11 µM): 0.746
- relative viability (NCI-H650; first compound 500 µM): 0.747
- relative viability (PC-3 [JPC-3]; first compound 5 µM): 0.953
- relative viability (PC-3 [JPC-3]; first compound 15.81 µM): 0.854
- relative viability (PC-3 [JPC-3]; first compound 50 µM): 0.883
- relative viability (PC-3 [JPC-3]; first compound 158.11 µM): 0.588
- relative viability (PC-3 [JPC-3]; first compound 500 µM): 0.64
- relative viability (LCLC-97TM1; first compound 5 µM): 0.186
- relative viability (LCLC-97TM1; first compound 15.81 µM): 0.167
- relative viability (LCLC-97TM1; first compound 50 µM): 0.199
- relative viability (LCLC-97TM1; first compound 158.11 µM): 0.16
- relative viability (LCLC-97TM1; first compound 500 µM): 0.0574
- relative viability (NCI-H1993; first compound 5 µM): 0.71
- relative viability (NCI-H1993; first compound 15.81 µM): 0.671
- relative viability (NCI-H1993; first compound 50 µM): 0.781
- relative viability (NCI-H1993; first compound 158.11 µM): 0.61
- relative viability (NCI-H1993; first compound 500 µM): 0.432
- relative viability (NCI-H838; first compound 5 µM): 1.04
- relative viability (NCI-H838; first compound 15.81 µM): 0.956
- relative viability (NCI-H838; first compound 50 µM): 0.905
- relative viability (NCI-H838; first compound 158.11 µM): 0.544
- relative viability (NCI-H838; first compound 500 µM): 0.0935
- relative viability (NCI-H1915; first compound 5 µM): 1.11
- relative viability (NCI-H1915; first compound 15.81 µM): 1.07
- relative viability (NCI-H1915; first compound 50 µM): 1.04
- relative viability (NCI-H1915; first compound 158.11 µM): 0.964
- relative viability (NCI-H1915; first compound 500 µM): 0.626
- relative viability (NCI-H520; first compound 5 µM): 0.842
- relative viability (NCI-H520; first compound 15.81 µM): 1.09
- relative viability (NCI-H520; first compound 50 µM): 1.03
- relative viability (NCI-H520; first compound 158.11 µM): 0.412
- relative viability (NCI-H520; first compound 500 µM): 0.12
- relative viability (RERF-LC-KJ; first compound 5 µM): 0.878
- relative viability (RERF-LC-KJ; first compound 15.81 µM): 0.869
- relative viability (RERF-LC-KJ; first compound 50 µM): 0.887
- relative viability (RERF-LC-KJ; first compound 158.11 µM): 0.87
- relative viability (RERF-LC-KJ; first compound 500 µM): 0.885
- relative viability (EKVX; first compound 5 µM): 0.993
- relative viability (EKVX; first compound 15.81 µM): 0.988
- relative viability (EKVX; first compound 50 µM): 0.955
- relative viability (EKVX; first compound 158.11 µM): 1.04
- relative viability (EKVX; first compound 500 µM): 1.05
- relative viability (NCI-H2347; first compound 5 µM): 0.983
- relative viability (NCI-H2347; first compound 15.81 µM): 0.857
- relative viability (NCI-H2347; first compound 50 µM): 0.86
- relative viability (NCI-H2347; first compound 158.11 µM): 0.874
- relative viability (NCI-H2347; first compound 500 µM): 0.868
